Measured values reported in patent publication US11214803B2, “Modulators of YAP1 expression” (Ionis Pharmaceuticals, Inc., priority 2019, dated 2022).
Strand notation (5' to 3'): a small letter for the sugar, then the base; units joined by * are phosphorothioate-linked, units joined directly phosphodiester-linked; [ ] holds rarer units or linkages, { } end groups; capitals alone tell only the bases. k = constrained ethyl (cEt); [5mC] = 5-methylcytosine; d = 2'-deoxy (DNA)

System: Yap1 mRNA
Test: Antisense inhibition of human Yap1 in A-431 cells by cEt gapmers, single dose (Example 2, RTS4814)
Format: cell-based
Procedure, shortened: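 Yap1 mRNA levels, by real-time RT-PCR (RTS4814) and corrected for total RNA via RIBOGREEN, are given as percent of untreated cells. Gapmers (16-mer, cEt wings, phosphorothioate, 5-methylC) were delivered without transfection at 2,000 nM to A-431 cells for about 48 hours.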

[1] = Table 5, A-431 cells, 5,000 cells per well, free uptake, 2,000 nM modified oligonucleotide, approx. 48 hours, RTS4814, normalized to RIBOGREEN, Yap1 mRNA relative to untreated control cells
[2] = Table 25, Yap1 mRNA as percent of untreated control, 3-10-3 cEt gapmers targeting SEQ ID NO.: 1, and 2
[3] = Table 18, A-431 cells, 5,000 cells per well, free uptake, 2,000 nM modified oligonucleotide, approx. 48 hours, RTS4814, normalized to RIBOGREEN, Yap1 mRNA as percent of untreated control
[4] = Table 24, Yap1 mRNA as percent of untreated control, 3-10-3 cEt gapmers targeting SEQ ID NO.: 1, and 2
[5] = A-431 cells, 5,000 cells per well, free uptake, 2,000 nM modified oligonucleotide, approx. 48 hours, RTS4814, normalized to RIBOGREEN, Table 4, asterisk (*) = targets amplicon region of primer probe set
[6] = Table 6, A-431 cells, 5,000 cells per well, free uptake, 2,000 nM modified oligonucleotide, approx. 48 hours, RTS4814, normalized to RIBOGREEN, Yap1 mRNA relative to untreated control cells
[7] = Table 20, Yap1 mRNA, percent of untreated control, 3-10-3 cEt gapmers targeting SEQ ID NO.: 1 and 2
[8] = Table 33, Yap1 mRNA, percent of untreated control, 3-10-3 cEt gapmers targeting SEQ ID NO.: 1, and 2
[9] = Table 19, A-431 cells, 5,000 cells per well, free uptake, 2,000 nM modified oligonucleotide, approx. 48 hours, RTS4814, normalized to RIBOGREEN, Yap1 mRNA as percent of untreated control
[10] = Yap1 mRNA as percent of untreated control, A-431 cells, 3-10-3 cEt gapmers targeting SEQ ID NO.: 1, and 2, Table 30

With “716467 (k[5mC]*k[5mC]*kG*dT*dA*dT*dG*d[5mC]*d[5mC]*d[5mC]*dA*dG*dA*kG*kG*kG; antisense) [Compound 716467]” the “YAP1 (% UTC)” value [1] was 99 % UTC.
“1074827 (kT*kA*kA*dA*dA*dT*d[5mC]*d[5mC]*dA*d[5mC]*d[5mC]*dT*dG*kA*kG*k[5mC]; antisense) [Compound 1074827]” was tested, and the “YAP1 (% UTC)” value [2] was 39 % UTC.
In the case of “1076521 (antisense kA*k[5mC]*kT*dA*dA*dA*dG*dG*dA*dG*dT*d[5mC]*dA*kT*kG*kA) [Compound 1076521]”, the “YAP1 (% UTC)” value (Table 23, Yap1 mRNA as percent of untreated control, 3-10-3 cEt gapmers, single dose) is reported as 67 % UTC.
In the case of “1075665 (antisense kA*kT*kT*dT*dA*dG*dT*dT*dG*dT*dG*d[5mC]*dA*k[5mC]*kA*kG) [compound 1075665]”, the “YAP1 (% UTC)” value (Yap1 mRNA as percent of untreated control, A-431 cells, 3-10-3 cEt gapmers targeting SEQ ID NO.: 1, and 2, Table 31) is reported as 87 % UTC.
“1074692 (antisense k[5mC]*k[5mC]*k[5mC]*d[5mC]*d[5mC]*d[5mC]*d[5mC]*dA*dA*dA*d[5mC]*dT*dT*kT*k[5mC]*k[5mC]) [Compound 1074692]” was tested, and the “YAP1 (% UTC)” value [3] was 101 % UTC.
With “1074983 (antisense k[5mC]*kA*k[5mC]*d[5mC]*dT*dT*dT*dT*dA*dT*dT*dG*d[5mC]*k[5mC]*kA*kG) [Compound 1074983]” the “YAP1 (% UTC)” value (Table 21, Yap1 mRNA, percent of untreated control, 3-10-3 cEt gapmers targeting SEQ ID NO.: 1 and 2) was 11 % UTC.
With “716575 (kA*kA*kA*dG*dA*dA*d[5mC]*dT*dT*dA*dG*dT*dT*k[5mC]*k[5mC]*k[5mC]; antisense) [Compound 716575]” the “YAP1 (% UTC)” value [1] was 84 % UTC.
For “1075300 (k[5mC]*kG*kT*dG*dA*dA*dA*dA*dG*dA*dA*dA*dG*kG*k[5mC]*k[5mC]; antisense) [Compound 1075300]”, the “YAP1 (% UTC)” value [3] was 98 % UTC.
“1075978 (kA*kG*kA*dT*dT*dA*dA*dA*dA*dG*dT*d[5mC]*dG*kG*kG*k[5mC]; antisense) [Compound 1075978]” was tested, and the “YAP1 (% UTC)” value [4] was 11 % UTC.
“1075496 (antisense kT*kT*kA*dT*dA*dT*dA*dA*dT*dG*d[5mC]*dA*dG*kG*k[5mC]*kT) [Compound 1075496]” was tested, and the “YAP1 (% UTC)” value (Table 22, Yap1 mRNA as percent of untreated control, 3-10-3 cEt gapmers, single dose) was 22 % UTC.
For “716518 (antisense k[5mC]*kA*kA*dG*dG*dT*d[5mC]*d[5mC]*d[5mC]*d[5mC]*d[5mC]*dT*dA*kA*kA*kT) [Compound 716518]”, the “YAP1 (% UTC)” value [1] was 88 % UTC.
For “1074251 (antisense kT*k[5mC]*kT*dG*dA*dT*d[5mC]*dG*dA*dT*dG*dT*dG*kA*kT*kT) [Compound 1074251]”, the “YAP1 (% UTC)” value [2] was 7 % UTC.
In the case of “716568 (kG*kA*kT*dT*dT*dT*dT*dT*d[5mC]*dT*dG*dA*dG*kT*kT*k[5mC]; antisense) [Compound 716568]”, the “YAP1 (% UTC)” value [5] is reported as 72 % UTC.
“716405 (kT*kG*kT*dT*dA*dA*dG*dG*dA*dA*dA*dG*dG*kA*kT*k[5mC]; antisense) [Compound 716405]” was tested, and the “YAP1 (% UTC)” value [6] was 149 % UTC.
In the case of “1076010 (kT*kA*kT*dA*dA*dA*d[5mC]*dA*dA*dT*dA*dG*d[5mC]*kG*kA*kA; antisense) [Compound 1076010]”, the “YAP1 (% UTC)” value [4] is reported as 44 % UTC.
For “716358 (k[5mC]*kG*kA*dG*dG*dG*d[5mC]*dT*dA*d[5mC]*dG*d[5mC]*d[5mC]*k[5mC]*kG*kG; antisense) [Compound 716358]”, the “YAP1 (% UTC)” value [5] was 104 % UTC.
“1074852 (antisense kA*kA*kT*dT*dG*dT*dT*dA*dT*dG*dA*dT*dA*kG*kG*k[5mC]) [Compound 1074852]” was tested, and the “YAP1 (% UTC)” value [3] was 4 % UTC.
In the case of “1075334 (kT*kT*kA*dA*dT*dA*dA*dT*d[5mC]*dT*dA*d[5mC]*d[5mC]*kA*kG*kT; antisense) [Compound 1075334]”, the “YAP1 (% UTC)” value [7] is reported as 60 % UTC.
For “1074707 (antisense kT*kT*kT*dA*dA*dT*dG*dG*d[5mC]*dA*dG*d[5mC]*dA*k[5mC]*kG*kG) [compound 1074707]”, the “YAP1 (% UTC)” value [8] was 36 % UTC.
For “716525 (antisense k[5mC]*kA*k[5mC]*dA*dG*dT*dA*d[5mC]*dT*dG*d[5mC]*dT*dA*k[5mC]*kA*kA) [Compound 716525]”, the “YAP1 (% UTC)” value [6] was 64 % UTC.
“1074950 (antisense kA*kT*k[5mC]*dA*dG*dG*dT*dT*dA*dA*dG*dT*dG*kA*kT*kT) [Compound 1074950]” was tested, and the “YAP1 (% UTC)” value [7] was 120 % UTC.
With “1075890 (antisense kG*kA*kT*dT*dA*dA*dA*dA*dG*dT*dA*dG*dG*k[5mC]*k[5mC]*k[5mC]) [compound 1075890]” the “YAP1 (% UTC)” value (Table 32, Yap1 mRNA, percent of untreated control, 3-10-3 cEt gapmers targeting SEQ ID NO.: 1, and 2) was 92 % UTC.
“1074853 (antisense k[5mC]*kA*kA*dT*dT*dG*dT*dT*dA*dT*dG*dA*dT*kA*kG*kG) [Compound 1074853]” was tested, and the “YAP1 (% UTC)” value [9] was 15 % UTC.
For “1074763 (kT*kG*k[5mC]*dT*dA*d[5mC]*d[5mC]*d[5mC]*dA*dA*dT*dA*d[5mC]*kA*kA*k[5mC]; antisense) [Compound 1074763]”, the “YAP1 (% UTC)” value [2] was 25 % UTC.
“1074181 (antisense k[5mC]*k[5mC]*k[5mC]*dG*dG*dG*dA*dT*d[5mC]*d[5mC]*dA*dT*dG*kG*k[5mC]*kT) [Compound 1074181]” was tested, and the “YAP1 (% UTC)” value [9] was 107 % UTC.
In the case of “1074227 (antisense kA*k[5mC]*kT*dG*dT*d[5mC]*dG*dA*dA*dG*dA*dT*dG*k[5mC]*kT*kG) [compound 1074227]”, the “YAP1 (% UTC)” value [8] is reported as 10 % UTC.
In the case of “1074698 (antisense kT*kA*kT*d[5mC]*dA*dA*dG*dG*dT*d[5mC]*d[5mC]*d[5mC]*d[5mC]*k[5mC]*kT*kA) [Compound 1074698]”, the “YAP1 (% UTC)” value [4] is reported as 78 % UTC.
“716416 (kA*kA*kG*dG*dA*dT*dG*dT*d[5mC]*dA*dG*dA*dA*k[5mC]*kT*k[5mC]; antisense) [Compound 716416]” was tested, and the “YAP1 (% UTC)” value [1] was 45 % UTC.
For “1075888 (antisense kA*k[5mC]*kT*dT*dA*dA*dA*d[5mC]*dT*dT*dG*dA*dG*kG*kG*kA) [compound 1075888]”, the “YAP1 (% UTC)” value [10] was 22 % UTC.
With “1076485 (antisense kA*kA*kA*d[5mC]*dG*dA*dA*dA*d[5mC]*dG*dG*dG*dA*kA*kA*kT) [Compound 1076485]” the “YAP1 (% UTC)” value [9] was 55 % UTC.
For “1075558 (kA*kT*kA*dT*dT*dA*dA*dG*dG*dT*dG*dG*d[5mC]*kT*kT*kA; antisense) [Compound 1075558]”, the “YAP1 (% UTC)” value [7] was 51 % UTC.
In the case of “1075718 (k[5mC]*k[5mC]*kA*d[5mC]*dT*dA*dA*dA*dA*d[5mC]*d[5mC]*dA*dA*kG*kT*kT; antisense) [Compound 1075718]”, the “YAP1 (% UTC)” value [7] is reported as 48 % UTC.
With “1075658 (kG*kT*kA*dA*dA*dA*dA*dA*d[5mC]*dG*dG*dT*dT*kT*kT*kT; antisense) [Compound 1075658]” the “YAP1 (% UTC)” value [4] was 103 % UTC.
In the case of “1076528 (kT*kT*kA*dT*dA*dA*dT*dG*dG*dG*dA*dG*dG*kA*kT*kT; antisense) [compound 1076528]”, the “YAP1 (% UTC)” value [10] is reported as 86 % UTC.
“1076166 (kA*kT*kT*dT*dA*d[5mC]*dA*d[5mC]*d[5mC]*dA*d[5mC]*d[5mC]*dG*k[5mC]*k[5mC]*k[5mC]; antisense) [Compound 1076166]” was tested, and the “YAP1 (% UTC)” value [7] was 77 % UTC.
“1076307 (kG*kT*kA*dA*dT*dT*dA*d[5mC]*d[5mC]*dT*d[5mC]*dT*dA*kA*kT*k[5mC]; antisense) [compound 1076307]” was tested, and the “YAP1 (% UTC)” value [8] was 38 % UTC.
With “1074378 (antisense kG*kA*kA*dA*d[5mC]*dG*dG*dT*dT*d[5mC]*dT*dG*d[5mC]*kT*kG*kT) [Compound 1074378]” the “YAP1 (% UTC)” value [4] was 31 % UTC.
In the case of “1075763 (kA*kT*kT*dT*dA*dG*dG*d[5mC]*dT*dT*dT*dG*dG*kG*kT*kT; antisense) [compound 1075763]”, the “YAP1 (% UTC)” value [8] is reported as 16 % UTC.
“1076356 (k[5mC]*kA*kT*dA*dA*dT*dT*dG*dG*dA*d[5mC]*dT*dG*kT*k[5mC]*kT; antisense) [Compound 1076356]” was tested, and the “YAP1 (% UTC)” value [3] was 99 % UTC.
With “1074757 (kA*kG*kT*dT*dA*dA*dG*d[5mC]*dA*d[5mC]*dT*dT*dT*kT*kA*k[5mC]; antisense) [Compound 1074757]” the “YAP1 (% UTC)” value [9] was 21 % UTC.
